Data from BindingDB's records for doi:10.1016/j.chembiol.2004.12.010 (National Institutes of Health, 2005).
Several values for one entry are separate records, joined by “and”; a condition that tells them apart may be missing. Identical values can stand only once.

Legend:
Test in all cases: Binding Assay
[1] = biological target: T1, Adenosine receptor A1 (Homo sapiens, UniProt P30542)
T1 sequence (P30542 whole entry): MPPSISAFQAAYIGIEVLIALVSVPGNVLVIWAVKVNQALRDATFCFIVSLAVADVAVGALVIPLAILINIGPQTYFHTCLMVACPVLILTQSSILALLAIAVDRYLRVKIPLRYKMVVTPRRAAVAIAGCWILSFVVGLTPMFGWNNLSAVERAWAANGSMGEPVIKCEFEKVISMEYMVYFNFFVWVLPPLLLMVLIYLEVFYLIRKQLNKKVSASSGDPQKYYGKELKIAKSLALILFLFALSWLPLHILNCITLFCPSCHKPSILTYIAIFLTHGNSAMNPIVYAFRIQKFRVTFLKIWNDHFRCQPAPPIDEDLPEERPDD
Description: (§1) Binding affinity of ligand at human adenosine receptors expressed in CHO cell.

[2] = biological target: T2, Adenosine receptor A2a (Homo sapiens, UniProt P29274)
T2 sequence (P29274 whole entry): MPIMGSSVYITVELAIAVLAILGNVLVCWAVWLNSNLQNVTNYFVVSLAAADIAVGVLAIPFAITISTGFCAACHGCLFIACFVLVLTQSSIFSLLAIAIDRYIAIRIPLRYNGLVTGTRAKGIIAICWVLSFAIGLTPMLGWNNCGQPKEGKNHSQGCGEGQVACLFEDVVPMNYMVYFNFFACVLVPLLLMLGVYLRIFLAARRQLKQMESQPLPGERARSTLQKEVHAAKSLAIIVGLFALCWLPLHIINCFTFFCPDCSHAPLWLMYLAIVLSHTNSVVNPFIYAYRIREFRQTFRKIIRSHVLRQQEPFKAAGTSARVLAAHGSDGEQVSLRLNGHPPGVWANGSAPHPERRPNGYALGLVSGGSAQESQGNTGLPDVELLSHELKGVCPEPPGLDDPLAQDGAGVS
Description: as §1

[3] = biological target: T3, Adenosine receptor A2b (Homo sapiens, UniProt P29275)
T3 sequence (P29275 whole entry): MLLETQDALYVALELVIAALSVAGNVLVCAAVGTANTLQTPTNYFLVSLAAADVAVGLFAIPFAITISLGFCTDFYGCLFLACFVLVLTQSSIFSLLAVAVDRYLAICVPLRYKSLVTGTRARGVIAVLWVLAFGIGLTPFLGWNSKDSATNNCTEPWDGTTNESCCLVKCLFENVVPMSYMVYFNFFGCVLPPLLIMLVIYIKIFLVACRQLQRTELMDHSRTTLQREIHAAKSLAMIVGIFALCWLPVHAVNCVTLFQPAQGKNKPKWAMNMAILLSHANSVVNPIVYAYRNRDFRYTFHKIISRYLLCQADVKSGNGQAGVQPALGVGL
Description: as §1

[4] = biological target: T4, Adenosine receptor A3 (Homo sapiens, UniProt P0DMS8)
T4 sequence (P0DMS8 whole entry): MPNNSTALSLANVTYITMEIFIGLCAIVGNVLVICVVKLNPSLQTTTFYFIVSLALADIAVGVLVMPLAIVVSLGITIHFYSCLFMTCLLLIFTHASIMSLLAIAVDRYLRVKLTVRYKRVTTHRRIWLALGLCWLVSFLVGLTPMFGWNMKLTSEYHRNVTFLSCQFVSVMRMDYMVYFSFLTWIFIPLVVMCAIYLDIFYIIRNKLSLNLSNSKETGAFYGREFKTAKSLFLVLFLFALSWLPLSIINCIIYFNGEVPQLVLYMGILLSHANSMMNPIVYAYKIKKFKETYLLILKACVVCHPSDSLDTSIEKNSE
Description: as §1

[5] = biological target: T2, Adenosine receptor A2a; details: pH 7.4; 25 °C
Description: Binding affinity of ligand at WT and mutant human A2A ARs expressed in COS7 cell.

| Structure (SMILES) | Ki [1] [µM] | Ki [2] [µM] | EC50 [3] [µM] | Ki [4] [µM] | Ki [5] |
| --- | --- | --- | --- | --- | --- |
| NNC(=O)[C@H]1O[C@@H](n2cnc3c(N)ncnc32)[C@H](O)[C@@H]1O | 0.171 | 2.23 | 12 | 0.378 |  |
| CCNC(=O)[C@H]1O[C@@H](n2cnc3c(N=C(N)N)ncnc32)[C@H](O)[C@@H]1O | 0.007 | 0.628 | 0.0545 | 0.0051 | 4.51 µM and 5.68 µM and 0.773 µM and 1.14 µM |
| NCCNC(=O)[C@H]1O[C@@H](n2cnc3c(N)ncnc32)[C@H](O)[C@@H]1O [5'-N-[(2-AMINO)ETHYL CARBOXAMIDO] ADENOSINE] | 0.245 |  | 15.6 |  |  |
| CNC(=O)[C@H]1O[C@@H](n2cnc3c(NCCN)ncnc32)[C@H](O)[C@@H]1O [Adenosine analog, 5] | 0.775 | > 100 | > 10 | 24.6 | > 100 µM |
| NCCCNC(=O)[C@H]1O[C@@H](n2cnc3c(N)ncnc32)[C@H](O)[C@@H]1O [Adenosine analog, 8] | > 100 | > 10 | > 10 | > 10 |  |
| NCCCCNC(=O)[C@H]1O[C@@H](n2cnc3c(N)ncnc32)[C@H](O)[C@@H]1O [Adenosine analog, 9] | > 100 | > 100 | > 10 | > 10 | > 100 µM and 55.2 µM and 48.1 µM |
| NCCCCCNC(=O)[C@H]1O[C@@H](n2cnc3c(N)ncnc32)[C@H](O)[C@@H]1O [Adenosine analog, 10] | > 100 | > 100 | > 10 | > 100 | > 100 µM and 124 µM |
| Nc1ncnc2c1ncn2[C@@H]1O[C@H](C(=O)NCCO)[C@@H](O)[C@H]1O [Adenosine analog, 11] |  |  | 0.942 |  |  |
| Cc1ccccc1CNc1ncnc2c1ncn2[C@@H]1O[C@H](C(=O)NN)[C@@H](O)[C@H]1O [Adenosine analog, 12] | > 10 | > 10 | > 100 | 0.394 |  |
| CCNC(=O)[C@H]1O[C@@H](n2cnc3c(NCc4ccccc4C)ncnc32)[C@H](O)[C@@H]1O [Adenosine analog, 13] | 0.106 | 5.43 | > 1 | 0.0788 |  |
| Cc1ccccc1CNc1ncnc2c1ncn2[C@@H]1O[C@H](C(=O)NCCN)[C@@H](O)[C@H]1O [Adenosine analog, 14] | > 10 | 55.9 | > 1 | > 10 |  |
| Cc1ccccc1CNc1ncnc2c1ncn2[C@@H]1O[C@H](C(=O)NCCO)[C@@H](O)[C@H]1O [Adenosine analog, 15] | 0.368 | > 10 | 3.72 | 1.64 |  |
| Cc1ccccc1CNc1ncnc2c1ncn2[C@@H]1O[C@H](CO)[C@@H](O)[C@H]1O [Adenosine analog, 16] | 0.0393 | 0.764 |  | 0.0472 |  |
| CNc1nc(N)nc2c1ncn2[C@@H]1O[C@H](CO)[C@@H](O)[C@H]1O [Adenosine analog, 17] | 0.484 | > 10 | > 10 | 0.039 | > 100 µM |
| CNc1nc(CN)nc2c1ncn2[C@@H]1O[C@H](CO)[C@@H](O)[C@H]1O [Adenosine analog, 18] | > 10 | > 10 | > 10 | 0.719 | > 100 µM |
| CNc1nc(C(=N)N)nc2c1ncn2[C@@H]1O[C@H](CO)[C@@H](O)[C@H]1O [Adenosine analog, 19] | > 10 | > 10 | > 10 | 2.73 | > 100 µM |
